Values quoted from earlier work, collected in US20050142187A1, “Enhanced absorption of modified release dosage forms” (priority 2003, published 2005).

SMILES: CC1(C)S[C@@H]2[C@H](NC(=O)[C@H](N)c3ccc(O)cc3)C(=O)N2[C@H]1C(=O)O [Amoxicillin, amoxicillin]
- Food effect (current scientific literature): either a negligible or a negative food effect
- Window of absorption (known in the art, "or less"): 3 to 4 h
